The values that follow are results of earlier work, collected in patent publication US9738644B2, “Chemical compounds, compositions and methods for kinase modulation” (Infinity Pharmaceuticals, Inc., priority 2010, dated 2017).

One series relates to B6.Sle1z.Sle3z model. To be noted: cited from earlier work.
For series [1] the following is noted: PBS pH 7.4, 37° C., 24 hours; cited from earlier work.
For series [2] the following is noted: reference compounds, 5 μM; cited from earlier work.

In the case of `CO[C@H]1C[C@@H]2CC[C@@H](C)[C@@](O)(O2)C(=O)C(=O)N2CCCC[C@H]2C(=O)O[C@H]([C@H](C)C[C@@H]2CC[C@@H](OCCO)[C@H](OC)C2)CC(=O)[C@H](C)/C=C(\C)[C@@H](O)[C@@H](OC)C(=O)[C@H](C)C[C@H](C)/C=C/C=C/C=C/1C` [RAD001, everolimus], the lupus symptoms entry in the series with B6.Sle1z.Sle3z model is recorded as “ameliorate lupus symptoms”.

As for `O=C(O)CCCc1ccc(N(CCCl)CCCl)cc1` [chlorambucil], the chemical stability entry in series [1] was “largely hydrolyzed over the course of 24 hours”.

With `CC(C)[N+](C)(CCOC(=O)C1c2ccccc2Oc2ccccc21)C(C)C` [propantheline], the plasma stability entry in series [2] is recorded as “intermediate plasma stability”.

Turning to `CCCOc1cc(N)ccc1C(=O)OCCN(CC)CC` [propoxycaine], in series [2], the plasma stability entry was “low plasma stability”.
